Measured values as given in BindingDB's records for doi:10.1021/acs.jmedchem.8b00875 (2019).

Assays:
[1] = target: T1, 5-hydroxytryptamine receptor 2C (Homo sapiens, UniProt P28335); test: Positive allosteric modulation of 5-HT2C receptor (unknown origin) assessed as increase in 5-HT-induced displacement of [3H]mesulergine by measuring 5-HT Ki at 20 uM (Rvb = 159 nM)
T1 sequence (P28335 whole entry): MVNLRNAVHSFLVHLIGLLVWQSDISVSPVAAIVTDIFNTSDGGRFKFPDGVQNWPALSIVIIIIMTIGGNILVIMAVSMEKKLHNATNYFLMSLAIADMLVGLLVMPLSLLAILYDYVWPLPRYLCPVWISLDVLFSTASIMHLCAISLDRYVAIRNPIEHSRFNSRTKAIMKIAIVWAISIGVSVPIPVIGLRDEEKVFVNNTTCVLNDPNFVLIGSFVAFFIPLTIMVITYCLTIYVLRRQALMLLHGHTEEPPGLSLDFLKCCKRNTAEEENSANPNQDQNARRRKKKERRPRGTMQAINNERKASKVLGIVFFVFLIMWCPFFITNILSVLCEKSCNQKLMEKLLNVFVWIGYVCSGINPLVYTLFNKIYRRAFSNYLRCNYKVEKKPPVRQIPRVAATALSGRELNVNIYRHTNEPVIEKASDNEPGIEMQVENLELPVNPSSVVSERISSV

[2] = target: T2, Muscarinic acetylcholine receptor M1 (Homo sapiens, UniProt P11229); test: Positive allosteric modulation of M1 AchR (unknown origin)
T2 sequence (P11229 whole entry): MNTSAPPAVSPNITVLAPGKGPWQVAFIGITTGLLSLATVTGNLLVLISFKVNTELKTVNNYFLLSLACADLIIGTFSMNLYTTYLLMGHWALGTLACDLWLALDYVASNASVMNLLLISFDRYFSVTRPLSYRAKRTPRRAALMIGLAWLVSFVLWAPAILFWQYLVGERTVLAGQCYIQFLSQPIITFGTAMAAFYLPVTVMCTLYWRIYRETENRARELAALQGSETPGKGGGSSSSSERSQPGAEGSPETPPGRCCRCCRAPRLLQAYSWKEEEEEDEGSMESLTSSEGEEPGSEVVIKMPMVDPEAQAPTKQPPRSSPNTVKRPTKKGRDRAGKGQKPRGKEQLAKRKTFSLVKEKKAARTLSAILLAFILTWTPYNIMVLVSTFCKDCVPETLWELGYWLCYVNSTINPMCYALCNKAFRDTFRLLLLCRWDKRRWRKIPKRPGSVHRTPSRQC

| Ki [1] | SMILES | EC50 [2] |
| --- | --- | --- |
| 0.0064 µM | CCCCCCCCCCC[C@@H]1CCN[C@H](C(=O)N[C@@H]([C@H]2O[C@H](SC)[C@H](O)[C@@H](O)[C@H]2O)[C@H](C)Cl)C1 | – |
| – | Cn1cc(-c2ccc(Cn3cc(C(=O)N[C@H]4CCCC[C@@H]4O)c4c(F)cc(F)cc43)cn2)cn1 | 0.21 µM |
